Where two headings read alike, the source gives them in different places.
How the values were obtained:
HL-60 cells = assay: HL-60 differentiation (nitro blue tetrazolium reduction); assay type: cell-based, Human; conditions: FIG. 2; for EC50: HL-60 cells, read-out: EC50, HL-60 cell differentiation
Experimental: The study drugs were dissolved in ethanol and the concentrations determined using UV spectrophotometry. Serial dilutions were prepared so that a range of drug concentrations could be tested without changing the final concentration of ethanol (≦0.2%) present in the cell cultures.
Human promyelocytic leukemia (HL60) cells were grown in RPMI-1640 medium containing 10% fetal bovine serum. The cells were incubated at 37° C. in the presence of 5% CO2.
HL60 cells were plated at 1.2×10^5 cells/ml. Eighteen hours after plating, cells in duplicate were treated with drug. Four days later, the cells were harvested and a nitro blue tetrazolium reduction assay was performed (Collins et al., 1979; J. Exp. Med. 149:969-974). The percentage of differentiated cells was determined by counting a total of 200 cells and recording the number that contained intracellular black-blue formazan deposits. Verification of differentiation to monocytic cells was determined by measuring phagocytic activity (data not shown).

[1] = tested on: 24-hydroxylase (24Ohase) gene promoter in ROS 17/2.8 (bone) cells; assay: In vitro transcription assay (24-hydroxylase promoter luciferase reporter); assay type: cell-based; conditions: FIG. 3; for EC50: ROS 17/2.8 cells, 24-hydroxylase promoter-luciferase, read-out: EC50, transcriptional activity in bone cells
Experimental: In Vitro Transcription Assay
Transcription activity was measured in ROS 17/2.8 (bone) cells that were stably transfected with a 24-hydroxylase (24Ohase) gene promoter upstream of a luciferase reporter gene (Arbour et al., 1998). Cells were given a range of doses. Sixteen hours after dosing the cells were harvested and luciferase activities were measured using a luminometer.
RLU=relative luciferase units.

[2] = Bone calcium mobilization (serum calcium) in vitamin D-deficient rats; assay type: in vivo, Sprague-Dawley rats; conditions: FIG. 4
Experimental: (§1) Intestinal Calcium Transport and Bone Calcium Mobilization
(§2) Male, weanling Sprague-Dawley rats were placed on Diet 11 (0.47% Ca) diet +AEK oil for one week followed by Diet 11 (0.02% Ca) +AEK oil for 3 weeks. The rats were then switched to a diet containing 0.47% Ca for one week followed by two weeks on a diet containing 0.02% Ca. Dose administration began during the last week on 0.02% calcium diet. Four consecutive ip doses were given approximately 24 hours apart. Twenty-four hours after the last dose, blood was collected from the severed neck and the concentration of serum calcium determined as a measure of bone calcium mobilization. The first 10 cm of the intestine was also collected for intestinal calcium transport analysis using the everted gut sac method.

[3] = Intestinal calcium transport (everted gut sac method) in vitamin D-deficient rats; assay type: in vivo, Sprague-Dawley rats; conditions: FIG. 5; for intestinal calcium transport: everted gut sac
Experimental: as §1, §2

[4] = molecular target: T1, full-length recombinant rat vitamin D receptor (Rattus norvegicus, UniProt P13053); assay: Vitamin D receptor binding (competition with [3H]-1,25(OH)2D3); conditions: full-length recombinant rat VDR; FIG. 1
T1 construct: Full-length recombinant rat receptor was expressed in E. coli BL21 (DE3) Codon Plus RIL cells; histidine tag (C); made in house; host or cells: E. coli BL21 (DE3) Codon Plus RIL
T1 sequence (P13053 1-423): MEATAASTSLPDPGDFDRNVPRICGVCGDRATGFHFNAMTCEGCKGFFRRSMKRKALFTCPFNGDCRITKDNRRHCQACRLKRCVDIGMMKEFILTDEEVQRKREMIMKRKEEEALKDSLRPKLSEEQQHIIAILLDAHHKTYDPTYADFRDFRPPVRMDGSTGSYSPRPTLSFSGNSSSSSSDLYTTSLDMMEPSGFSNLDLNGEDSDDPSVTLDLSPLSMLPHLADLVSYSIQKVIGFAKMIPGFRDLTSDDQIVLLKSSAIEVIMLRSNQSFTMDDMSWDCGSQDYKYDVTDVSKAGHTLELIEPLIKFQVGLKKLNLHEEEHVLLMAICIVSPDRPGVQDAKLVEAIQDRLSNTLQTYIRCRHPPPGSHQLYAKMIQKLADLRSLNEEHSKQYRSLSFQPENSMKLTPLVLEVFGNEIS
Excerpt: Vitamin D Receptor Binding
Full-length recombinant rat receptor was expressed in E. coli BL21 (DE3) Codon Plus RIL cells and purified to homogeneity using two different column chromatography systems. The first system was a nickel affinity resin that utilizes the C-terminal histidine tag on this protein. The protein that was eluted from this resin was further purified using ion exchange chromatography (S-Sepharose Fast Flow). Aliquots of the purified protein were quick frozen in liquid nitrogen and stored at −80° C. until use. For use in binding assays, the protein was diluted in TEDK50 (50 mM Tris, 1.5 mM EDTA, pH7.4, 5 mM DTT, 150 mM KCl) with 0.1% Chaps detergent. The receptor protein and ligand concentration were optimized such that no more than 20% of the added radiolabeled ligand was bound to the receptor.
Radiolabeled and unlabeled ligands were added to 100 mcl of the diluted protein at a final ethanol concentration of ≦10%, mixed and incubated overnight on ice to reach binding equilibrium. The following day, 100 mcl of hydroxylapatite slurry (50%) was added to each tube and mixed at 10-minute intervals for 30 minutes. The hydroxylapaptite was collected by centrifugation and then washed three times with Tris-EDTA buffer (50 mM Tris, 1.5 mM EDTA, pH 7.4) containing 0.5% Titron X-100. […] Total binding was determined from the tubes containing only radiolabeled ligand.

| Ki [4] | binding to vitamin D receptor compared to standard 1,25-(OH)2D3 (in words) [4] | EC50 (HL-60 cells; Homo sapiens) | SMILES | EC50 (HL-60 cells) | EC50 [1] | serum calcium levels (bone calcium mobilization) ([2]; native hormone, dose not given, vitamin D-deficient rats, 0.02% Ca diet) | intestinal calcium transport ([3]; 87 pmol/day) | potency on HL-60 cell differentiation compared to 1,25(OH)2D3 (in words) (HL-60 cells) | transcriptional activity in bone cells compared to 1α,25-dihydroxyvitamin D3 (in words) [1] | bone calcium mobilization ([2]; 2340 pmol/day ip for 4 consecutive days, vitamin D-deficient rats, 0.02% Ca diet) | bone calcium mobilization ([2]; 35100 pmol/day, vitamin D-deficient rats, 0.02% Ca diet) | bone calcium mobilization activity compared to 1,25(OH)2D3 (in words) ([2]; overall) | intestinal calcium transport ([3]; 2340 pmol/day) | intestinal calcium transport ([3]; 35100 pmol/day) | intestinal calcium transport activity compared to 1,25(OH)2D3 (in words) ([3]; overall) |
| --- | --- | --- | --- | --- | --- | --- | --- | --- | --- | --- | --- | --- | --- | --- | --- |
| – | – | – | C=C1/C(=C\C=C2/CCC[C@]3(C)[C@@H]([C@H](C)CCCC(C)(C)O)CC[C@@H]23)C[C@@H](O)C[C@@H]1O [1α,25-dihydroxyvitamin D3, reference compound] | 3 nM | 0.3 nM | increased serum calcium levels | promotes a significant increase | – | – | – | – | – | – | – | – |
| 0.05 nM | bound almost equally to the receptor | 10 nM | C=C1[C@H](O)CC(=C/C=C2\CCC[C@]3(C)[C@@H]([C@@H](C)CC(F)F)CC[C@@H]23)C[C@H]1O [FF-55, (20S)-23,23-difluoro-1α-hydroxy-2-methylene-19-nor-bishomopregnacalciferol] | – | 3 nM | – | – | almost as potent as 1,25(OH)2D3 | about the same transcriptional activity | did not result in mobilization of bone calcium | without any effect | very little bone calcium mobilization activity | does not promote intestinal calcium transport | significant intestinal calcium transport activity | very little activity |

Reference: US7718637B2, “(20S)-23,23-difluoro-methylene-19-nor-bishomopregnacalciferol-vitamin D analogs” (Wisconsin Alumni Research Foundation, priority 2007, dated 2010)
